Assay results: PMC6522510 (Nature Communications, 2019)
Like-named read-outs stand apart in the source and are kept apart here.

Tests used:
Parameters in all cases: species or system AML cell lines (8); Primary HTS, single concentration about 10 uM, Cell Titer Glo viability; log10 luminescence, per cent inhibition relative to cycloheximide control
Conditions in all cases: 72 h, inhibitor
U937 = system: U937
MV4-11 = system: MV4-11
CMK = system: CMK
ML-2 = system: ML-2
CMS = system: CMS
M07e = system: M07e
CHRF288-11 = system: CHRF288-11
MOLM-13 = system: MOLM-13
[1] = relative to cycloheximide control, log10 luminescence

Row | SMILES | U937 %inh (U937; [1]) [%] | MV4-11 %inh (MV4-11; [1]) [%] | CMK %inh (CMK; [1]) [%] | ML-2 %inh (ML-2; [1]) [%] | CMS %inh (CMS; [1]) [%] | M07e %inh (M07e; [1]) [%] | CHRF288-11 %inh (CHRF288-11; [1]) [%] | MOLM-13 %inh (MOLM-13; [1]) [%] | U937 %inh (U937; 10 µM) [%] | MV4-11 %inh (MV4-11; 10 µM) [%] | CMK %inh (CMK; 10 µM) [%] | ML-2 %inh (ML-2; 10 µM) [%] | CMS %inh (CMS; 10 µM) [%] | M07e %inh (M07e; 10 µM) [%] | CHRF288-11 %inh (CHRF288-11; 10 µM) [%] | MOLM-13 %inh (MOLM-13; 10 µM) [%]
1 | COC(=O)c1cncc(/C=C/c2c(C)cc(O)cc2C)c1 [SJ000573206-1, U12614/140/1] | 23.01 | 6.215 | 80.78 | 4.986 | 1.868 | 18.22 | 31.61 | 1.326 | – | – | – | – | – | – | – | –
2 | CCCN(CCS(C)(=O)=O)Cc1ccc(-c2ccc3ncnc(Nc4ccc(OCc5cccc(F)c5)c(Cl)c4)c3c2)o1 [SJ000573207-1, U16419/108/1] | 4.462 | 1.09 | 1.892 | 1.001 | -1.914 | -0.08315 | 4.347 | 2.051 | – | – | – | – | – | – | – | –
3 | CS(=O)(=O)CCNCc1nc(-c2ccc3ncnc(Nc4ccc(F)c(Cl)c4)c3c2)cs1 [SJ000573208-1, R2677/150/1] | -0.3412 | 1.268 | 3.345 | 0.9399 | 3.363 | 1.192 | 0.6669 | 1.729 | – | – | – | – | – | – | – | –
4 | O=C(Nc1n[nH]c2nnc(-c3cccnc3)cc12)C1CC1 [SJ000573209-1, VB49227-069A2] | – | – | – | – | – | – | – | – | 14.39 | 53.21 | 119.5 | 10.24 | 99.51 | 20.82 | 36.24 | 58.37
5 | COc1ccc2ncnc(Nc3ccc(OCc4ccccc4)cc3)c2c1 [SJ000573210-1, 0142W 95C*D] | -0.1655 | 1.39 | 1.162 | -0.6695 | 0.3657 | -3.821 | -3.911 | 13.25 | – | – | – | – | – | – | – | –
6 | CCn1c(-c2nonc2N)nc2cncc(C(=O)N3CC[C@H](N)C3)c21 [SJ000573211-1, MH203936-065A1] | 24.07 | 35.54 | 50.04 | 13.35 | 6.352 | 8.501 | 24.28 | 12.04 | – | – | – | – | – | – | – | –
7 | CC1=C(C(=O)Nc2ccc3[nH]ncc3c2)C(c2ccc(F)cc2)NC(=O)N1 (stereo not shown) [SJ000573212-1, SD203460-064A1] | 0.2192 | 13.33 | 22.73 | 7.379 | 3.347 | 2.046 | 14.28 | -1.98 | – | – | – | – | – | – | – | –
8 | O=C1Nc2ccc(-c3cccnc3)cc2C1=Cc1cc(Br)c(O)c(Br)c1 [SJ000573213-1, R10489/16/2] | -1.775 | -0.07867 | 0.4308 | 4.287 | -1.986 | 2.589 | 4.693 | 4.678 | – | – | – | – | – | – | – | –
9 | CCNC(=O)O[C@H]1CN[C@H](C#Cc2cc3ncnc(Nc4ccc(OCc5cccc(F)c5)c(Cl)c4)c3s2)C1 [SJ000573214-1, U20348/125/4] | -0.8245 | 0.06144 | -1.307 | 3.073 | 3.079 | 3.561 | 5.639 | 0.5641 | – | – | – | – | – | – | – | –
10 | O=C(O[C@H]1CN[C@H](C#Cc2cc3ncnc(Nc4ccc5c(cnn5Cc5ccccc5)c4)c3s2)C1)N1CCOCC1 [SJ000573215-1, U19635/172/2] | 3.001 | 1.975 | 78.93 | 2.941 | 5.16 | -0.8707 | 51 | 2.242 | – | – | – | – | – | – | – | –
11 | COc1cccc(-n2ncc3c(N/N=C/c4cccc(F)c4)ncnc32)c1 [SJ000573217-1, U18028/186/1] | -3.323 | -3.164 | -7.034 | 0.8639 | 0.08051 | -2.637 | -0.7991 | -3.305 | – | – | – | – | – | – | – | –
12 | COc1ccc2[nH]c3c4[nH]c5ccc(OC)cc5c4c4c(c3c2c1)C(=O)NC4=O [SJ000573218-1, 3744W 92C*D] | 14.28 | 76.35 | 26.51 | 9.324 | 16.49 | 25.27 | 13.67 | 81.75 | – | – | – | – | – | – | – | –
13 | COc1cccc(-n2ncc3c(N/N=C/c4ccc(F)cc4)ncnc32)c1 [SJ000573219-1, U18028/188/1] | -0.8072 | -2.52 | -2.994 | 1.489 | 1.318 | 4.179 | -1.076 | 0.1437 | – | – | – | – | – | – | – | –
14 | COc1ccc(-c2cc3c(N)ncnc3o2)cc1 [SJ000573220-1, R6872/65/2] | -1.174 | -2.253 | 5.591 | 2.103 | 5.247 | 10.8 | 23.46 | 4.813 | – | – | – | – | – | – | – | –
15 | CN1CCC(n2cnc(-c3ccc(F)cc3)c2-c2ccnc(N)n2)CC1 [SJ000573221-1, JB19236-039E1] | 13.28 | 16.49 | 38.27 | 19.36 | 5.129 | 20.04 | 35.57 | 26.24 | – | – | – | – | – | – | – | –
16 | CCn1c(-c2nonc2N)nc2cnc(Oc3cccc(NC(=O)c4ccc(OCCN5CCOCC5)cc4)c3)cc21 [SJ000573222-1, HC204505-099A1] | 38.21 | 34.29 | 59.96 | 11.73 | 9.487 | -2.093 | 16.4 | 15.66 | – | – | – | – | – | – | – | –
17 | c1ccc(-c2n[nH]cc2-c2ccnc(-c3ccc(OCCn4ccnc4)cc3)c2)nc1 [SJ000573223-1, FVLN/241/112/1] | -2.834 | 2.943 | 2.62 | -0.7623 | -2.708 | -2.852 | 4.882 | 3.444 | – | – | – | – | – | – | – | –
18 | Fc1ccc(Nc2nccc(-c3c(-c4ccc(C(F)(F)F)cc4)nn4ncccc34)n2)cc1F [SJ000573224-1, U17838/186/3] | 0.5152 | -1.825 | 0.9298 | 2.7 | -1.104 | -1.97 | -0.9437 | -1.248 | – | – | – | – | – | – | – | –
19 | FC(F)(F)c1ccc(-c2nn3ncccc3c2-c2ccnc(Nc3ccc4c(c3)OCCO4)n2)cc1 [SJ000573225-1, U17838/185/2] | -2.674 | 7.035 | -4.267 | 1.234 | -3.296 | 2.059 | 13.54 | -3.312 | – | – | – | – | – | – | – | –
20 | COc1cc(C=NNc2ncnc3c2cnn3-c2ccccc2)ccc1O [SJ000573226-1, U14681/58/1] | 8.322 | 35.25 | -0.5633 | -0.2562 | 3.107 | 11.87 | 10.72 | 3.51 | – | – | – | – | – | – | – | –
21 | CN(C)CCOc1ccc(-c2cc(-c3ccc4c(c3)CCC4=NO)c(-c3ccncc3)o2)cc1 [SJ000573227-1, JS84326-047A1] | 9.989 | 2.356 | 15.46 | 66.89 | 6.225 | 14.13 | 127 | 21.06 | – | – | – | – | – | – | – | –
22 | CCc1nccc2c1nc(-c1nonc1N)n2CC [SJ000573228-1, DW100508-159A1] | 6.241 | 4.392 | 3.989 | 3.812 | -0.9805 | -1.816 | 7.841 | 4.708 | – | – | – | – | – | – | – | –
23 | Cn1c(-c2nonc2N)nc2cnccc21 [SJ000573229-1, SD100950-025A1] | 2.832 | 1.313 | 8.868 | 1.359 | 2.573 | -6.783 | 1.476 | 0.5998 | – | – | – | – | – | – | – | –
